{"source": "patent US20190351002A1", "about": "“METHOD OF TREATING CANCER, PARASITE, MICROBIAL OR FUNGAL DISEASE” (priority 2017, published 2019)", "key": {"[1]": {"test_system": "Hep2 (Human Epidermoid Larynx ca) cells", "test": "MTT cytotoxicity test on Hep2 cell line", "format": "cell-based", "excerpt": "The oils of the plant as an extract are used which have been obtained by cold pressing and it has been ensured that the extract is fresh and pure. The extracts that have been obtained through the whole study have been initially diluted with solvents, filtered and sterilized. Cytotoxicity study (MTT test) has been developed as a method regarding the Hep2 cell line in all parameters for initial doses. The maximum dose and dilution sub doses that have been determined accordingly have been repeated controlled groups. Different amounts of Hep2 cells have been tested in flat bottomed 96 well plates for cell culture during the first stage of the study and it has been determined that 2×10^4 cells were optimal for the monolayer layer of 2×10^4 cell per well. A pure oil of Zingiber officinale extract, which has been tested inside various solvents in terms of penetration into cells and homogenous distribution. MTT tests have been carried out relating to Hep2 cells in solvents too. DMSO was selected from solvents such as DMSO and Methanol and was used and cytopathic doses have not been exceeded during the whole study (FIG. 1). Essential oil has been obtained from Ginger and emulsions have been obtained from fixed oil plants (Nigella Sativa etc.) and compounds. According to MTT test (FIG. 2) results that belong to Zingiber officinale, the average OD values of the control group have been determined as 1.38."}, "Toxoplasma gondii": {"test_system": "Toxoplasma gondii", "test": "ELISA test of efficiency against Toxoplasma gondii in infected Hep2 cells", "format": "cell-based", "conditions": "48 hour", "excerpt": "An ELISA (Enzyme-Linked Immunosorbent Assay) test (FIG. 3) has been planned and conducted in order to determine efficiency against Toxoplasma gondii.\nThe ELISA test has been carried out on flat bottom well plates having 96 wells. First of all, the bases of the plates have been covered with a suitable amount of Hep2 cells. […] Following this all wells have been processed again with different doses (determined with MTT) of pyrimtheamine, sulphadiazine—and Ginger (Zingiber officinals) extract, prepared with DMSO.\n1 Following all of these procedures, the supernatants were removed from the wells and were retained for 10 minutes with 100 μl cold methanol. • The plates which were ready for the ELISA process were then worked.\nThe result was read by the ELISA reader device in 30 minutes."}}, "data": [{"molecule": "Nc1ccc(S(=O)(=O)Nc2ncccn2)cc1", "note": "[Sulphadiazine]", "values": [{"measurement": "OD value (MTT test)", "setting": "[1]; 50 μg/ml", "result": 1.002}, {"measurement": "OD value (MTT test)", "setting": "[1]; 100 μg/ml", "result": 0.827}, {"measurement": "OD value (MTT test)", "setting": "[1]; 200 μg/ml", "result": 0.254}]}, {"molecule": "CCc1nc(N)nc(N)c1-c1ccc(Cl)cc1", "note": "[Pyrimethamine]", "values": [{"measurement": "ELISA OD value / reproduction according to positive control (PK)", "setting": "Toxoplasma gondii; 0.5 μg/ml", "result": 75, "unit": "%"}, {"measurement": "ELISA OD value / reproduction according to positive control (PK)", "setting": "Toxoplasma gondii; 4 μg/ml", "result": 45, "unit": "%"}, {"measurement": "ELISA OD value / reproduction according to positive control (PK)", "setting": "Toxoplasma gondii; 2nd dose (printed '2.1 and 0.5 μg/ml': 2 μg/ml)", "result": 56, "unit": "%"}, {"measurement": "ELISA OD value / reproduction according to positive control (PK)", "setting": "Toxoplasma gondii; 3rd dose", "result": 54, "unit": "%"}, {"measurement": "OD value (MTT test)", "setting": "[1]; 1 μg/ml", "result": 1.228}, {"measurement": "OD value (MTT test)", "setting": "[1]; 2 μg/ml", "result": 1.198}, {"measurement": "OD value (MTT test)", "setting": "[1]; 4 μg/ml", "result": 0.623}, {"measurement": "OD value (MTT test)", "setting": "[1]; 8 μg/ml", "result": 0.310}, {"measurement": "OD value (MTT test)", "setting": "[1]; 16 μg/ml", "result": 0.209}, {"measurement": "OD value (MTT test)", "setting": "[1]; 32 μg/ml", "result": 0.097}]}]}
